Measurements: ChEMBL document CHEMBL6074668 (J Med Chem, 2024)

What was measured:
[1] = molecular target: T1, Alpha-1B adrenergic receptor (Homo sapiens, UniProt P35368); assay: Binding affinity to alpha1B adrenergic receptor (unknown origin) by radioligand displacement assay
T1 sequence (P35368 whole entry): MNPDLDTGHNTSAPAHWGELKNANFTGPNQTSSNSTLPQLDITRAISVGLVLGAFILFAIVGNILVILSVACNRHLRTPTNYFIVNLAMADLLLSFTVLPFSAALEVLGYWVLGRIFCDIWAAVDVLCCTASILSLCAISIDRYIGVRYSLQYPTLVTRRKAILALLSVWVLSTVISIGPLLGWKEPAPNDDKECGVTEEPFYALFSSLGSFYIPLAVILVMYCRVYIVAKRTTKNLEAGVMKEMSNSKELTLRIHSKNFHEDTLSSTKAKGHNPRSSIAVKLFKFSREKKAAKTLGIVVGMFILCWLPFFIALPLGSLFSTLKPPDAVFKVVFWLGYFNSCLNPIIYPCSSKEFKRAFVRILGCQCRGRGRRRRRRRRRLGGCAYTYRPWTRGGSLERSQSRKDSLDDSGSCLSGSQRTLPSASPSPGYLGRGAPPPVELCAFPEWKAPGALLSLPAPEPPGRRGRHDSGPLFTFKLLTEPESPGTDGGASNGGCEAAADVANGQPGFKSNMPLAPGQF

[2] = molecular target: T2, Alpha-2C adrenergic receptor (Homo sapiens, UniProt P18825); assay: Binding affinity to alpha2C adrenergic receptor (unknown origin) by radioligand displacement assay
T2 sequence (P18825 whole entry): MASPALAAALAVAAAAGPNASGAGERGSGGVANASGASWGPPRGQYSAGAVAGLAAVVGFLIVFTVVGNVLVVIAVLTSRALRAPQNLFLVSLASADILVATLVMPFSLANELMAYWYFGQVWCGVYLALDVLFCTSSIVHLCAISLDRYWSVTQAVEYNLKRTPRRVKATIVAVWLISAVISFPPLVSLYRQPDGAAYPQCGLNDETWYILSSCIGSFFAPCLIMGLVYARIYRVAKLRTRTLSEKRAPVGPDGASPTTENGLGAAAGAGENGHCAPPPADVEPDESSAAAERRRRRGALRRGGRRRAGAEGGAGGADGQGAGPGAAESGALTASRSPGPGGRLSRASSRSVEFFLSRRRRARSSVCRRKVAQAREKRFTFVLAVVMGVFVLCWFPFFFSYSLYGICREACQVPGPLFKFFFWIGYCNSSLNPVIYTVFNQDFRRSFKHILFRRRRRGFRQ

Mu-type opioid receptor = Mu-type opioid receptor (Homo sapiens, UniProt P35372); assay: Agonist activity at human mu opioid receptor expressed in CHO-K1 cells assessed as inhibition of forskolin-stimulated cAMP accumulation by HitHunter assay based luminescence analysis; assay type: functional, cell-based
Mu-type opioid receptor, sequence (P35372 whole entry): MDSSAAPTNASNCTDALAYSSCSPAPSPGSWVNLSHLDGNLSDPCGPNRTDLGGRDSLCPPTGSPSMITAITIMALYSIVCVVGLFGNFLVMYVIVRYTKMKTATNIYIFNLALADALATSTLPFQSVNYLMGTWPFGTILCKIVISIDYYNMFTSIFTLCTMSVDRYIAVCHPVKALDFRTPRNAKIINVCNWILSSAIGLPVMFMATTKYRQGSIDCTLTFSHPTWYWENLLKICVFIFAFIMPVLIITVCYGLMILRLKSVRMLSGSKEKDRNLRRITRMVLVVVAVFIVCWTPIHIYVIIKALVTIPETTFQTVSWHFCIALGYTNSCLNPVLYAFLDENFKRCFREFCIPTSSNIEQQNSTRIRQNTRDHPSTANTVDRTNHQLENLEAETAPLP

SMILES: C/C=C1/CN2CC[C@]34C(=C(C(=O)OC)[C@H]1C[C@H]23)Nc1ccc(I)cc14
- Ki [1]: 2.02 µM
- Ki [2]: 2.86 µM
- EC50 (Mu-type opioid receptor): 41 µM
